Experimental data reported in PMC10778198, “First-in-Human Dose-Escalation Study of the Novel Oral Depsipeptide Class I-Targeting HDAC Inhibitor Bocodepsin (OKI-179) in Patients with Advanced Solid Tumors” (Cancers, 2023).

System: patients with advanced solid tumors
Test: phase I dose escalation: safety, DLT, MTD, RP2D (CTCAE v. 5)
Assay type: in vivo
Excerpt: Subsequent dosing cohorts were enrolled using a standard 3 + 3 design.
If any patient in any cohort of three patients developed a DLT during cycle 1, an additional three patients were recruited to expand the cohort to up to six evaluable patients. If two or more patients in any expanded cohort developed a DLT, this dose was considered non-tolerated, and dose escalation was discontinued. The MTD was defined as the highest dose level for which no more than one of six patients experienced a DLT.
Patients were continuously evaluated for adverse events throughout the study using the Common Terminology Criteria of Adverse Events (CTCAE v. 5). The patients underwent a clinical history and physical examination, an ECOG PS, a complete blood count (CBCs), chemistry, coagulation studies, urinalysis, a serum pregnancy test (as applicable), a triplicate ECG, an ophthalmology examination, and baseline tumor assessment at screening. During cycle 1, weekly history and physical examination, CBC, chemistry, coagulation parameters, urinalysis, and triplicate ECGs were performed; in subsequent cycles, weekly labs were limited to a CBC. Repeat ophthalmology examinations were performed at cycle 3, day 1, and at the end of treatment. Repeat tumor assessment was performed every 2 cycles (6 weeks) in accordance with RECIST 1.1.

[1] = 4:3 intermittent dosing schedule, all grades

## CC(C)[C@H](N)C(=O)SCC/C=C/[C@@H]1CC(=O)NCc2nc(cs2)C(=O)NC(C)(C)C(=O)N[C@@H](C(C)C)C(=O)O1 [OKI-179, Bocodepsin]
4:3, 350 mg (n = 3), G3
  TEAE: Hypokalaemia: 0 n (%)
  TEAE: Muscular weakness: 0 n (%)
  TEAE: Nasal congestion: 0 n (%)
  TEAE: Nausea: 0 n (%)
  TEAE: Platelet count decreased: 0 n (%)
  TEAE: Proteinuria: 0 n (%)
  TEAE: Pyrexia: 0 n (%)
  TEAE: Vomiting: 0 n (%)
  TEAE: Weight decreased: 0 n (%)
4:3, 450 mg (n = 6), G1
  TEAE: Anemia: 0 n (%)
  TEAE: Back pain: 2 (33) n (%)
  TEAE: Cough: 1 (17) n (%)
  TEAE: Decreased appetite: 1 (17) n (%)
  TEAE: Diarrhea: 0 n (%)
  TEAE: Dyspnea: 0 n (%)
  TEAE: ECG QT prolonged: 1 (17) n (%)
  TEAE: Fatigue: 0 n (%)
  TEAE: Headache: 1 (17) n (%)
  TEAE: Hypokalaemia: 0 n (%)
  TEAE: Muscular weakness: 0 n (%)
  TEAE: Nausea: 2 (33) n (%)
  TEAE: Platelet count decreased: 1 (17) n (%)
  TEAE: Proteinuria: 0 n (%)
  TEAE: Pyrexia: 1 (17) n (%)
  TEAE: Vomiting: 1 (17) n (%)
  TEAE: Weight decreased: 1 (17) n (%)
4:3, 450 mg (n = 6), G2
  TEAE: Anemia: 0 n (%)
  TEAE: Back pain: 0 n (%)
  TEAE: Cough: 0 n (%)
  TEAE: Decreased appetite: 1 (17) n (%)
  TEAE: Diarrhea: 0 n (%)
  TEAE: Dyspnea: 0 n (%)
  TEAE: ECG QT prolonged: 0 n (%)
  TEAE: Fatigue: 0 n (%)
  TEAE: Headache: 0 n (%)
  TEAE: Hypokalaemia: 1 (17) n (%)
  TEAE: Muscular weakness: 0 n (%)
  TEAE: Nasal congestion: 0 n (%)
  TEAE: Nausea: 3 (50) n (%)
  TEAE: Platelet count decreased: 2 (33) n (%)
  TEAE: Proteinuria: 3 (50) n (%)
  TEAE: Pyrexia: 0 n (%)
  TEAE: Vomiting: 0 n (%)
  TEAE: Weight decreased: 0 n (%)
4:3, 450 mg (n = 6), G3
  TEAE: Anemia: 2 (33) n (%)
  TEAE: Back pain: 0 n (%)
  TEAE: Cough: 0 n (%)
  TEAE: Decreased appetite: 0 n (%)
  TEAE: Diarrhea: 0 n (%)
  TEAE: Dyspnea: 0 n (%)
  TEAE: ECG QT prolonged: 1 (17) n (%)
  TEAE: Fatigue: 1 (17) n (%)
  TEAE: Headache: 0 n (%)
  TEAE: Hypokalaemia: 0 n (%)
  TEAE: Muscular weakness: 1 (17) n (%)
  TEAE: Nasal congestion: 0 n (%)
  TEAE: Nausea: 0 n (%)
  TEAE: Platelet count decreased: 0 n (%)
  TEAE: Proteinuria: 0 n (%)
  TEAE: Pyrexia: 0 n (%)
  TEAE: Vomiting: 0 n (%)
  TEAE: Weight decreased: 0 n (%)
[1]
  TEAE: Anemia: 40%
  TEAE: Diarrhea: 25%
  TEAE: Fatigue: 40%
  TEAE: Nausea: 63%
  TEAE: Vomiting: 30%
  TEAE: anorexia: 35%
  TEAE: decreased platelet count: 30%
4:3 schedule
  grade 3 TEAE: anemia: 25%
  grade 3 TEAE: fatigue: 15%
  grade 3 TEAE: prolonged QT: 15%
4:3 schedule, 450 mg
  grade 1 or 2 nausea: 83%
5:2, 300 mg (N=6), All grades
  TEAE: Abdominal pain: 1 (17) N (%)
  TEAE: Anemia: 2 (33) N (%)
  TEAE: Aspartate aminotransferase increased: 1 (17) N (%)
  TEAE: Back pain: 2 (33) N (%)
  TEAE: Bile duct stenosis: 1 (17) N (%)
  TEAE: Blood alkaline phosphatase increased: 1 (17) N (%)
  TEAE: Decreased appetite: 2 (33) N (%)
  TEAE: Dehydration: 1 (17) N (%)
  TEAE: Dysphagia: 1 (17) N (%)
  TEAE: ECG QT prolonged: 2 (33) N (%)
  TEAE: Enterococcal bacteremia: 1 (17) N (%)
  TEAE: Esophagitis: 1 (17) N (%)
  TEAE: Esophagoscopy: 1 (17) N (%)
  TEAE: Eye pain: 1 (17) N (%)
  TEAE: Fatigue: 4 (67) N (%)
  TEAE: Gastritis: 1 (17) N (%)
  TEAE: Hypomagnesaemia: 1 (17) N (%)
  TEAE: Myalgia: 1 (17) N (%)
  TEAE: Nausea: 5 (83) N (%)
  TEAE: Neutrophil count decreased: 1 (17) N (%)
  TEAE: Oropharyngeal pain: 1 (17) N (%)
  TEAE: Pain in extremity: 1 (17) N (%)
  TEAE: Paresthesia: 1 (17) N (%)
  TEAE: Platelet count decreased: 4 (67) N (%)
  TEAE: Pneumonitis: 1 (17) N (%)
  TEAE: Pneumothorax: 1 (17) N (%)
  TEAE: Vomiting: 3 (50) N (%)
5:2, 300 mg (N=6), G1
  TEAE: Abdominal pain: 0 N (%)
  TEAE: Anemia: 1 (17) N (%)
  TEAE: Aspartate aminotransferase increased: 1 (17) N (%)
  TEAE: Back pain: 1 (17) N (%)
  TEAE: Bile duct stenosis: 0 N (%)
  TEAE: Blood alkaline phosphatase increased: 1 (17) N (%)
  TEAE: Decreased appetite: 0 N (%)
  TEAE: Dehydration: 1 (17) N (%)
  TEAE: Dysphagia: 0 N (%)
  TEAE: ECG QT prolonged: 2 (33) N (%)
  TEAE: Enterococcal bacteremia: 0 N (%)
  TEAE: Esophagitis: 1 (17) N (%)
  TEAE: Esophagoscopy: 0 N (%)
  TEAE: Eye pain: 1 (17) N (%)
  TEAE: Fatigue: 1 (17) N (%)
  TEAE: Gastritis: 1 (17) N (%)
  TEAE: Hypomagnesaemia: 1 (17) N (%)
  TEAE: Myalgia: 1 (17) N (%)
  TEAE: Nausea: 4 (67) N (%)
  TEAE: Neutrophil count decreased: 1 (17) N (%)
  TEAE: Oropharyngeal pain: 0 N (%)
  TEAE: Pain in extremity: 0 N (%)
  TEAE: Paresthesia: 1 (17) N (%)
  TEAE: Platelet count decreased: 4 (67) N (%)
  TEAE: Pneumonitis: 0 N (%)
  TEAE: Pneumothorax: 0 N (%)
  TEAE: Vomiting: 2 (33) N (%)
5:2, 300 mg (N=6), G2
  TEAE: Abdominal pain: 1 (17) N (%)
  TEAE: Anemia: 0 N (%)
  TEAE: Aspartate aminotransferase increased: 0 N (%)
  TEAE: Back pain: 0 N (%)
  TEAE: Bile duct stenosis: 0 N (%)
  TEAE: Blood alkaline phosphatase increased: 0 N (%)
  TEAE: Decreased appetite: 1 (17) N (%)
  TEAE: Dehydration: 0 N (%)
  TEAE: Dysphagia: 1 (17) N (%)
  TEAE: ECG QT prolonged: 0 N (%)
  TEAE: Enterococcal bacteremia: 0 N (%)
  TEAE: Esophagitis: 0 N (%)
  TEAE: Esophagoscopy: 1 (17) N (%)
  TEAE: Eye pain: 0 N (%)
  TEAE: Fatigue: 3 (50) N (%)
  TEAE: Gastritis: 0 N (%)
  TEAE: Hypomagnesaemia: 0 N (%)
  TEAE: Myalgia: 0 N (%)
  TEAE: Nausea: 0 N (%)
  TEAE: Neutrophil count decreased: 0 N (%)
  TEAE: Oropharyngeal pain: 1 (17) N (%)
  TEAE: Pain in extremity: 1 (17) N (%)
  TEAE: Paresthesia: 0 N (%)
